US9932637B2, “Genetic polymorphisms associated with cardiovascular disorders and drug response, methods of detection and uses thereof” (CELERA CORPORATION, priority 2003, dated 2018)

Test system: patients with prior myocardial infarction (CARE study)
Test: CARE: association of SNPs with pravastatin treatment in cardiovascular events prevention (logistic regression, odds ratio pravastatin vs placebo by genotype; Table 8)
Type: in vivo, human
Settings: for Prava vs. Placebo Odds Ratio, 1 Rare Alleles / Prava vs. Placebo Odds Ratio, 2 Rare Alleles / Non-fatal MI (def & prob), n/total (%) / Fatal/Non-fatal MI (def & prob), n/total (%) / Fatal CHD/Definite Non-fatal MI, n/total (%) / Total Coronary Heart Disease Events, n/total (%) / Fatal/Non-fatal Atherosclerotic CV Disease, n/total (%) / Hosp. for Cardiovascular Disease, n/total (%) / Total Cardiovascular Disease Events, n/total (%) / Prava vs. Placebo Odds Ratio, 0 Rare Alleles: All Patients; for Non-fatal MI (def & prob), n/total (%) / Fatal/Non-fatal MI (def & prob), n/total (%) / Fatal CHD/Definite Non-fatal MI, n/total (%) / Total Coronary Heart Disease Events, n/total (%) / Fatal/Non-fatal Atherosclerotic CV Disease, n/total (%) / Hosp. for Cardiovascular Disease, n/total (%) / Total Cardiovascular Disease Events, n/total (%): Prava
Description: In order to identify genetic markers associated with acute coronary events (e.g. MI, stroke, unstable angina, congestive heart failure, etc.) or response to statin treatment for the prevention of coronary events, samples from the Cholesterol and Recurrent Events (CARE) study (a randomized multicentral double-blinded trial on secondary prevention of acute coronary events with pravastatin) (Sacks et al., 1991, Am. J. Cardiol. 68: 1436-1446) were genotyped. A well-documented myocardial infarction (MI) was one of the enrollment criteria for entry into the CARE study. Patients were enrolled in the CARE trial from 80 participating study centers. […] Patients were randomized to receive either 40 mg of pravastatin once daily or a matching placebo. The primary endpoint of the trial was death from coronary heart disease and the median duration of follow-up was 5.0 years (range, 4.0 to 6.2 years). […] Secondary endpoints of other related cardiovascular or metabolic disease events, and changes in clinical variables were also recorded in pravastatin-treated and placebo groups. All individuals included in the study had signed a written informed consent form and the study protocol was approved by the respective Institutional Review Boards (IRBs).
For genotyping SNPs in CARE patient samples, DNA was extracted from blood samples using conventional DNA extraction methods such as the QIA-amp kit from Qiagen. Genotypes were obtained on an ABI PRISM® 7900HT Sequence Detection PCR system (Applied Biosystems, Foster City, Calif.) by kinetic allele-specific PCR, similar to the method described by Germer et al. (Germer S., Holland M. J., Higuchi R. 2000, Genome Res. 10: 258-266).
Statistical analysis for association of SNPs with pravastatin treatment in cardiovascular events prevention (Table 8) was carried out using an overall logistic regression model that included an intercept, a parameter for the effect of a genotype containing two rare alleles versus a genotype containing no rare alleles, a parameter for the effect of a genotype containing one rare allele versus a genotype containing no rare alleles, a parameter for the effect of use of pravastatin versus the use of placebo, and parameters for the interaction effects between SNP genotypes and pravastatin use. The test of the overall model is a chi-square test with two degrees of freedom for analyses containing all three genotypes, and one degree of freedom for analyses containing two genotypes.
Effect sizes were estimated through odds ratios (pravastatin group versus placebo) for carriers of each genotype (groups of 0, 1, and 2 minor allele carriers). The effect was considered to be significant if p-value for testing whether any of the interactions between SNP genotypes and pravastatin use were <0.05. […] Odds ratios less than one indicate that the specific SNP allele has a protective effect and odds ratios greater than one indicate that the specific SNP allele has an adverse effect.

[1] = IL1A hCV9546471, Total Mortality
[2] = IL1RN hCV8737990, 2 Rare Alleles, n/total 20/121
[3] = IL1RN hCV8737990, Fatal CHD/Definite Non-fatal MI
[4] = IL1RN hCV8737990, Fatal/Non-fatal Atherosclerotic CV Disease
[5] = IL1RN hCV8737990, Fatal/Non-fatal MI (def & prob)
[6] = IL1RN hCV8737990, Hosp. for Cardiovascular Disease
[7] = IL1RN hCV8737990, Non-fatal MI (def & prob)
[8] = IL1RN hCV8737990, Total Cardiovascular Disease Events
[9] = IL1RN hCV8737990, Total Coronary Heart Disease Events
[10] = IL6ST hCV16170435, 2 Rare Alleles, n/total 19/37
[11] = IL6ST hCV16170435, Hosp. for Cardiovascular Disease
[12] = IL6ST hCV16170435, Total Cardiovascular Disease Events
[13] = IL9 hCV3275199, All Patients, 0 Rare Alleles, Prava arm

## CC[C@H](C)C(=O)O[C@H]1C[C@H](O)C=C2C=C[C@H](C)[C@H](CC[C@@H](O)C[C@@H](O)CC(=O)O)[C@H]21 [pravastatin]
[1]
  Prava vs. Placebo Odds Ratio, 1 Rare Alleles: 0.60
  Prava vs. Placebo Odds Ratio, 2 Rare Alleles: 0.29
IL1RN hCV8737990, 0 Rare Alleles, n/total 68/809
  Non-fatal MI (def & prob), n/total (%): (8.4%)
IL1RN hCV8737990, 0 Rare Alleles, n/total 76/809
  Fatal/Non-fatal MI (def & prob), n/total (%): (9.4%)
IL1RN hCV8737990, 0 Rare Alleles, n/total 80/809
  Fatal CHD/Definite Non-fatal MI, n/total (%): (9.9%)
IL1RN hCV8737990, 0 Rare Alleles, n/total 228/809
  Total Coronary Heart Disease Events, n/total (%): (28.2%)
IL1RN hCV8737990, 0 Rare Alleles, n/total 260/809
  Fatal/Non-fatal Atherosclerotic CV Disease, n/total (%): (32.1%)
IL1RN hCV8737990, 0 Rare Alleles, n/total 315/809
  Hosp. for Cardiovascular Disease, n/total (%): (38.9%)
IL1RN hCV8737990, 0 Rare Alleles, n/total 325/809
  Total Cardiovascular Disease Events, n/total (%): (40.2%)
IL1RN hCV8737990, 1 Rare Allele, n/total 44/585
  Fatal CHD/Definite Non-fatal MI, n/total (%): (7.5%)
IL1RN hCV8737990, 1 Rare Allele, n/total 45/585
  Non-fatal MI (def & prob), n/total (%): (7.7%)
IL1RN hCV8737990, 1 Rare Allele, n/total 49/585
  Fatal/Non-fatal MI (def & prob), n/total (%): (8.4%)
IL1RN hCV8737990, 1 Rare Allele, n/total 167/585
  Total Coronary Heart Disease Events, n/total (%): (28.5%)
IL1RN hCV8737990, 1 Rare Allele, n/total 193/585
  Fatal/Non-fatal Atherosclerotic CV Disease, n/total (%): (33.0%)
IL1RN hCV8737990, 1 Rare Allele, n/total 232/585
  Hosp. for Cardiovascular Disease, n/total (%): (39.7%)
IL1RN hCV8737990, 1 Rare Allele, n/total 239/585
  Total Cardiovascular Disease Events, n/total (%): (40.9%)
IL1RN hCV8737990, 2 Rare Alleles, n/total 15/121
  Fatal CHD/Definite Non-fatal MI, n/total (%): (12.4%)
[2]
  Fatal/Non-fatal MI (def & prob), n/total (%): (16.5%)
  Non-fatal MI (def & prob), n/total (%): (16.5%)
IL1RN hCV8737990, 2 Rare Alleles, n/total 45/121
  Total Coronary Heart Disease Events, n/total (%): (37.2%)
IL1RN hCV8737990, 2 Rare Alleles, n/total 51/121
  Fatal/Non-fatal Atherosclerotic CV Disease, n/total (%): (42.1%)
IL1RN hCV8737990, 2 Rare Alleles, n/total 60/121
  Hosp. for Cardiovascular Disease, n/total (%): (49.6%)
IL1RN hCV8737990, 2 Rare Alleles, n/total 61/121
  Total Cardiovascular Disease Events, n/total (%): (50.4%)
[3]
  Prava vs. Placebo Odds Ratio, 0 Rare Alleles: 0.75
  Prava vs. Placebo Odds Ratio, 1 Rare Alleles: 0.52
  Prava vs. Placebo Odds Ratio, 2 Rare Alleles: 1.89
[4]
  Prava vs. Placebo Odds Ratio, 0 Rare Alleles: 0.75
  Prava vs. Placebo Odds Ratio, 1 Rare Alleles: 0.66
  Prava vs. Placebo Odds Ratio, 2 Rare Alleles: 1.67
[5]
  Prava vs. Placebo Odds Ratio, 0 Rare Alleles: 0.66
  Prava vs. Placebo Odds Ratio, 1 Rare Alleles: 0.51
  Prava vs. Placebo Odds Ratio, 2 Rare Alleles: 1.70
[6]
  Prava vs. Placebo Odds Ratio, 0 Rare Alleles: 0.77
  Prava vs. Placebo Odds Ratio, 1 Rare Alleles: 0.64
  Prava vs. Placebo Odds Ratio, 2 Rare Alleles: 1.37
[7]
  Prava vs. Placebo Odds Ratio, 0 Rare Alleles: 0.68
  Prava vs. Placebo Odds Ratio, 1 Rare Alleles: 0.52
  Prava vs. Placebo Odds Ratio, 2 Rare Alleles: 1.70
[8]
  Prava vs. Placebo Odds Ratio, 0 Rare Alleles: 0.75
  Prava vs. Placebo Odds Ratio, 1 Rare Alleles: 0.65
  Prava vs. Placebo Odds Ratio, 2 Rare Alleles: 1.37
[9]
  Prava vs. Placebo Odds Ratio, 0 Rare Alleles: 0.74
  Prava vs. Placebo Odds Ratio, 1 Rare Alleles: 0.67
  Prava vs. Placebo Odds Ratio, 2 Rare Alleles: 1.84
IL6ST hCV16170435, 0 Rare Alleles, n/total 450/1131
  Hosp. for Cardiovascular Disease, n/total (%): (39.8%)
IL6ST hCV16170435, 0 Rare Alleles, n/total 465/1131
  Total Cardiovascular Disease Events, n/total (%): (41.1%)
IL6ST hCV16170435, 1 Rare Allele, n/total 139/340
  Hosp. for Cardiovascular Disease, n/total (%): (40.9%)
IL6ST hCV16170435, 1 Rare Allele, n/total 142/340
  Total Cardiovascular Disease Events, n/total (%): (41.8%)
[10]
  Hosp. for Cardiovascular Disease, n/total (%): (51.4%)
  Total Cardiovascular Disease Events, n/total (%): (51.4%)
[11]
  Prava vs. Placebo Odds Ratio, 0 Rare Alleles: 0.75
  Prava vs. Placebo Odds Ratio, 1 Rare Alleles: 0.72
  Prava vs. Placebo Odds Ratio, 2 Rare Alleles: 2.49
[12]
  Prava vs. Placebo Odds Ratio, 0 Rare Alleles: 0.75
  Prava vs. Placebo Odds Ratio, 1 Rare Alleles: 0.69
  Prava vs. Placebo Odds Ratio, 2 Rare Alleles: 2.49
[13]
  Fatal/Nonfatal MI (def & prob), n/total (%): (10.8%)
  MI (Fatal/Nonfatal), n/total (%): (11.1%)
